Measured values taken from US4959378A, “Aminopyridinylaminophenol compounds useful as topical antiinflammatory agents for the treatment of skin disorders” (Hoechst-Roussel Pharmaceuticals Inc., priority 1989, dated 1990).

Tests used:
[1] = test system: naja naja (snake venom) phospholipase A2 -induced paw edema; test: Phospholipase A2-induced Paw Edema (PIPE); format: in vivo, rat; details: for PIPE (0.1 M), difference in edema vs. control: 0.1M test compound injected with PLA2 (3 units/paw) subplantar, rat left hindpaw, two hours post administration
Protocol: Phospholipase A2 -induced Paw Edema (PIPE)
The ability of compounds to prevent naja naja (snake venom) phospholipase A2 -induced paw edema in male Wistar rates (100-125 g) was measured. PLA2 (3 units/paw) alone or with 0.1M of the test compound was injected in the subplantar region of the rat left hindpaw. Immediately subsequent to the injection and at two hours post administration the paw was immersed in a mercury bath, and paw displacement was measured on a recorder via a transducer. […] See Giessler, A. J. et al., Agents and Actions, Vol. 10, Trends in Inflammation Research (1981), p. 195.

porcine pancreatic PLA2 = target: T1, porcine pancreatic PLA2 (Sus scrofa, UniProt P00592); test: In Vitro Phospholipase A2 Assay (PLA2); format: biochemical; details: 0.01 M test compound; porcine pancreatic PLA2 3.2 units, pH 8.0, 37° C.; read-out: PLA2 (0.01 M), difference vs. control
T1 construct: from tissue; host or cells: porcine pancreas
T1 sequence (P00592 23-146): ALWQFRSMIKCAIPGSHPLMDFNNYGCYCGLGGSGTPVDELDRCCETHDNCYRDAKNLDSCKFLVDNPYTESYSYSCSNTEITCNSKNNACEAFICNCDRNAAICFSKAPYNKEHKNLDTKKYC
Protocol: In Vitro Phospholipase A2 Assay (PLA2)
The ability of a compound to modulate PLA2 activity (cleavage of ^14 C-dipalmitoyl phosphotidylcholine at the 2-position to ^14 C-palmitic acid) was quantitated in this assay. The reaction mixture contained Tris buffer (25 mM), pH 8.0, calcium chloride (2.0 mM), bovine serum albumin (0.5 mg), dipalmitoyl phosphotidylcholine (8×10^-5M), (^14 C-palmitoyl)dipalmitoyl phosphotidylcholine (6×10^3cpm), porcine pancreatic PLA2 (3.2 units) and the test compound. The reaction was run at 37° C. in a shaking incubator. The reaction was quenched and an internal standard was added in order to determine sample recovery. The samples were loaded onto C18 columns, eluted with ethanol, and the radioactivity was then measured. […] See Feyen, J. H. M., et al., Journal of Chromatography 259 (1983), pp. 338-340.

SMILES | PIPE (0.1 M), difference in edema vs. control [1] [%] | inhibition at 10000 µM (porcine pancreatic PLA2) [%] | ED50 (PIPE standard) ([1]; standard, subplantar injection with PLA2, male Wistar rats) [M]
Nc1ccncc1Nc1ccc(O)cc1.O=C(O)/C=C\C(=O)O [4-[(4-Amino-3-pyridinyl)amino]phenol maleate] | -62 | 35 | 
Nc1ccncc1Nc1cccc(O)c1 [3-[(4-Amino-3-pyridinyl)amino]phenol] | -52 | 35 | 
C[C@]12CCC(=O)C=C1CC[C@@H]1[C@@H]2[C@@H](O)C[C@@]2(C)[C@H]1CC[C@]2(O)C(=O)CO [hydrocortisone, reference compound] |  |  | 0.46
